How the values were obtained:
Assay in all cases: relative viability (nuclei count vs DMSO), 5 days (fraction); higher = more cells survive
Carboplatin + Navitoclax = compound: C1CC(C1)(C(=O)O)C(=O)O.[NH2-].[NH2-].[Pt+2] [Carboplatin] + CC1(C)CCC(c2ccc(Cl)cc2)=C(CN2CCN(c3ccc(C(=O)NS(=O)(=O)c4ccc(N[C@H](CCN5CCOCC5)CSc5ccccc5)c(S(=O)(=O)C(F)(F)F)c4)cc3)CC2)C1 [Navitoclax] (partner 0.5 µM)
How it was run: (§1)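 Relative viability was taken as the ratio of nuclei in treated wells to nuclei in vehicle wells. Lung cancer cell lines in 1536-well plates received compounds by pin tool one day after seeding, either one drug alone or a fixed anchor-drug dose plus five library-drug doses (not always all listed) in √10 steps. Nuclei were counted on 4× images after 5 days of treatment, and values are medians of duplicate plates.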

Carboplatin + AZD7762 = compound: C1CC(C1)(C(=O)O)C(=O)O.[NH2-].[NH2-].[Pt+2] [Carboplatin] + NC(=O)Nc1cc(-c2cccc(F)c2)sc1C(=O)N[C@H]1CCCNC1 [AZD7762] (partner 0.2 µM)
How it was run: as §1

GSK126 + Palbociclib = compound: CC[C@H](C)N1C=C(C2=C(C=C(C=C21)C3=CN=C(C=C3)N4CCNCC4)C(=O)NCC5=C(C=C(NC5=O)C)C)C [GSK126] + CC(=O)c1c(C)c2cnc(Nc3ccc(N4CCNCC4)cn3)nc2n(C2CCCC2)c1=O [Palbociclib] (partner 0.5 µM)
How it was run: as §1

MLN4924 + Palbociclib = compound: NS(=O)(=O)OC[C@@H]1C[C@@H](n2ccc3c(N[C@H]4CCc5ccccc54)ncnc32)C[C@@H]1O [MLN4924] + CC(=O)c1c(C)c2cnc(Nc3ccc(N4CCNCC4)cn3)nc2n(C2CCCC2)c1=O [Palbociclib] (partner 0.5 µM)
How it was run: as §1

Cell Line	relative viability (Carboplatin + Navitoclax; first compound 0.08 µM)	relative viability (Carboplatin + Navitoclax; first compound 0.253 µM)	relative viability (Carboplatin + Navitoclax; first compound 0.8 µM)	relative viability (Carboplatin + Navitoclax; first compound 2.53 µM)	relative viability (Carboplatin + Navitoclax; first compound 8 µM)	relative viability (Carboplatin + AZD7762; first compound 0.08 µM)	relative viability (Carboplatin + AZD7762; first compound 0.253 µM)	relative viability (Carboplatin + AZD7762; first compound 0.8 µM)	relative viability (Carboplatin + AZD7762; first compound 2.53 µM)	relative viability (Carboplatin + AZD7762; first compound 8 µM)	relative viability (GSK126 + Palbociclib; first compound 0.08 µM)	relative viability (GSK126 + Palbociclib; first compound 0.253 µM)	relative viability (GSK126 + Palbociclib; first compound 0.8 µM)	relative viability (GSK126 + Palbociclib; first compound 2.53 µM)	relative viability (GSK126 + Palbociclib; first compound 8 µM)	relative viability (MLN4924 + Palbociclib; first compound 0.04 µM)	relative viability (MLN4924 + Palbociclib; first compound 0.1265 µM)	relative viability (MLN4924 + Palbociclib; first compound 0.4 µM)	relative viability (MLN4924 + Palbociclib; first compound 1.265 µM)	relative viability (MLN4924 + Palbociclib; first compound 4 µM)
NCI-H2126	0.894	0.871	0.853	0.865	0.784	0.972	1.06	1.05	1.03	0.931	0.343	0.359	0.327	0.39	0.354	0.403	0.424	0.397	0.327	0.237
NCI-H838	1.22	1.08	1.16	1.11	1.06	1.09	0.957	0.837	0.869	0.758	0.264	0.223	0.202	0.212	0.234	0.253	0.256	0.175	0.138	0.138
EPLC-272H	1.15	1.18	0.978	1.29	1.11	0.308	0.218	0.309	0.208	0.208	0.344	0.324	0.33	0.374	0.301	0.29	0.281	0.102	0.232	0.181
NCI-H1437	1.07	1.14	1.09	1.05	0.97	1.22	1.09	0.927	0.955	1.03	0.313	0.278	0.293	0.279	0.316	0.292	0.321	0.228	0.187	0.134
NCI-H2405	0.869	0.862	0.639	0.629	0.62	0.832	0.757	0.757	0.646	0.454	0.586	0.507	0.537	0.557	0.523	0.516	0.456	0.41	0.22	0.252
NCI-H1666	1.04	1.12	0.745	0.853	0.641	0.973	0.916	0.811	0.779	0.831	0.642	0.613	0.6	0.636	0.692	0.553	0.549	0.693	0.492	0.46
NCI-H1993	0.981	0.867	0.855	0.755	0.861	0.973	0.899	0.864	0.871	0.695	0.751	0.605	0.606	0.797	0.632	0.792	0.428	0.422	0.362	0.377
HCC-78	0.782	0.92	0.707	0.751	0.816	0.744	0.712	0.656	0.693	0.644	0.473	0.38	0.497	0.461	0.492	0.52	0.462	0.472	0.422	0.418
LU99A	0.842	0.881	0.829	0.774	0.581	0.425	0.405	0.349	0.243	0.196	0.444	0.439	0.379	0.39	0.451	0.414	0.333	0.318	0.163	0.125
NCI-H1975	1.19	1.26	1.01	1.09	1.18	0.868	0.746	0.679	0.742	0.691	0.633	0.591	0.636	0.561	0.627	0.549	0.696	0.707	0.557	0.231
NCI-H1355	1.02	1.01	0.853	0.912	0.921	0.98	0.877	0.626	0.791	0.729	0.446	0.365	0.417	0.405	0.413	0.418	0.409	0.445	0.234	0.195
NCI-H1755	1.02	1.01	1.04	1.02	0.891	0.445	0.477	0.491	0.465	0.419	0.465	0.394	0.458	0.43	0.445	0.4	0.442	0.314	0.209	0.257
LK-2	0.905	1.03	0.74	0.74	0.995	0.712	0.582	0.341	0.412	0.497	0.682	0.657	0.738	0.558	0.681	0.508	0.342	0.284	0.138	0.161
HCC-827	0.999	0.98	0.927	0.982	0.918	0.245	0.204	0.213	0.182	0.223	0.492	0.54	0.486	0.483	0.469	0.35	0.325	0.317	0.173	0.148
NCI-H322M	1.26	1.22	1.18	1.13	1.05	0.598	0.548	0.553	0.547	0.428	0.568	0.488	0.505	0.485	0.45	0.56	0.656	0.504	0.389	0.395
NCI-H727	0.487	0.393	0.426	0.441	0.324	0.579	0.461	0.628	0.685	0.639	0.681	0.641	0.67	0.75	0.659	0.681	0.584	0.566	0.476	0.535
NCI-H1944	1.1	1.1	0.991	1.02	0.656	0.616	0.5	0.584	0.559	0.354	0.407	0.334	0.332	0.36	0.352	0.374	0.371	0.366	0.197	0.178
BEN	0.0584	0.0591	0.0635	0.0642	0.0703	0.912	0.792	0.725	0.723	0.818	0.482	0.41	0.5	0.506	0.473	0.402	0.411	0.374	0.285	0.222
CAL-12T	1.2	1.21	1.23	1.26	1.09	0.848	0.579	0.674	0.555	0.548	0.491	0.458	0.515	0.416	0.41	0.403	0.254	0.161	0.122	0.182
NCI-H2170	0.679	0.594	0.633	0.588	0.508	0.944	0.934	0.995	0.724	0.385	0.433	0.388	0.385	0.397	0.394	0.392	0.242	0.253	0.109	0.124
NCI-H1792	0.887	0.682	0.667	0.618	0.567	0.924	0.669	0.606	0.457	0.352	0.642	0.627	0.659	0.661	0.629	0.654	0.583	0.689	0.453	0.353
NCI-H2085	1.25	1.09	1.09	1.05	1.09	1.02	1.01	0.973	0.995	0.909	0.477	0.456	0.466	0.453	0.47	0.489	0.505	0.587	0.556	0.416
EKVX	0.948	1.03	0.909	0.967	0.852	0.743	0.757	0.737	0.739	0.537	0.455	0.366	0.38	0.405	0.363	0.389	0.362	0.334	0.188	0.142
201T	1.2	1.18	1.12	1.14	1.18	0.643	0.608	0.612	0.482	0.423	0.442	0.356	0.378	0.387	0.382	0.395	0.353	0.354	0.219	0.26
NCI-H1395	1.16	1.2	0.799	0.845	0.591	0.403	0.39	0.406	0.386	0.405	0.656	0.568	0.597	0.681	0.505	0.726	0.679	0.528	0.357	0.354
NCI-H2347	0.897	0.929	0.771	0.721	0.673	0.837	0.741	0.805	0.752	0.798	0.46	0.385	0.469	0.422	0.439	0.426	0.46	0.399	0.312	0.339

Reference: the supplement of paper PMC10307832
